Read-outs that look alike come from different tables or passages of the source.
Tests used:
[1] = tested on: collagen-induced blood-platelet aggregation; assay: Collagen-induced blood-platelet aggregation (plasma of orally treated rats); type: in vivo, rats of Wistar strain; settings: Rattus norvegicus, oral 100 mg/kg, 3 hours after treatment, collagen (bovine tendon extract), read-out: Percent inhibition of blood-platelet aggregation, Collagen
Description: (§1) A blood sample is taken from the jugular vein of rats of Wistar strain. From this citrated blood, and after centrifugation, is reconstituted a plasma containing 600,000 ± 20,000 platelets per mm^3 which will be used in all aggregation determinations. 0.4 ml plasma is placed in a siliconized tube provided with a magnetic bar, which is also siliconized. The tube is introduced into an aggregometer connected with an optical density variation recorder. When light transmission has reached a stable value, 0.5 ml of a solution containing 10 μM A.D.P. (adenosine-diphosphate) are introduced in the tube. Blood-platelet aggregation then induces an increase of light transmission followed by a decrease subsequent to the deaggregation phase. The thus determined maximum variation of optical density characterizes the intensity of the aggregation. (b) Determination of collagen-induced blood-platelet aggregation The A.D.P. solution is substituted with a collagen solution (bovine tendon extract). Different groups of 20 rats are used, each group being administered orally a test derivative, at a dosage of 100 mg/kg. The results obtained in the course of tests a) and b) are tabulated in following Table I which indicates the percent inhibition of blood-plateletaggregation obtained, with respect to the control, 3 hours after treatment.

[2] = tested on: carrageenin-induced edema; assay: Localised carrageenin-induced edema method; type: in vivo; settings: Rattus norvegicus, rats, oral 100 mg/kg at -1, 0, 1 and 2.5 hours
Description: (a) Localised carrageenin-induced edema method: A 1% carrageenin solution (0.1 ml) is injected in the metatarsal flexor muscles of the right hind limb of rats at time 0. The animals of the treated group are additionally administered orally 100 mg/kg of the test derivative, respectively one hour prior to and then simultaneously with the phlogogenic agent, and then one hour and 2.5 hours thereafter. The percent antiinflammatory activity, as a function of time, is determined with respect to the control group by measurements effected with a ROCH micrometer at times 0, one hour, two hours, three hours and five hours after carrageenin administration.

[3] = tested on: A.D.P.-induced blood-platelet aggregation; assay: A.D.P.-induced blood-platelet aggregation (plasma of orally treated rats); type: in vivo, rats of Wistar strain; settings: Rattus norvegicus, oral 100 mg/kg, 3 hours after treatment, 10 μM A.D.P., read-out: Percent inhibition of blood-platelet aggregation, A.D.P.
Description: as §1, with “determinations. (a) Determination of A.D.P.-induced blood-platelet aggregation” for “determinations.”, “aggregation.” for “aggregation. (b) Determination of collagen-induced blood-platelet aggregation The A.D.P. solution is substituted with a collagen solution (bovine tendon extract).”

[4] = Potentiation of hypnotics (infrahypnotic sodium pentobarbital); type: in vivo; settings: mice, oral 50 mg/kg, thirty minutes prior to i.p. infrahypnotic sodium pentobarbital
Description: In addition, the compounds of the formula (I) potentiate very markedly the effect of hypnotics. Indeed, on oral administration to different groups of mice, at a dosage of 50 mg/kg, thirty minutes prior to intraperitoneal injection of an infrahypnotic dosage of sodium pentobarbital, they produce, with respect to the untreated reference animals, a marked potentiation of the barbiturate.

[5] = tested on: ovalbumin-induced systemic edema; assay: Ovalbumin-induced systemic edema method; type: in vivo; settings: Rattus norvegicus, rats, oral 100 mg/kg one hour prior to and simultaneously with ovalbumin
Description: (b) Ovalbumin-induced systemic edema method Rats are administered a simultaneous intraperitoneal injection of 1 ml ovalbumin and 0.5 ml of a 1% aqueous Evans Blue solution. The animals of the treated group are additionally administered orally 100 mg/kg of the test derivative, one hour prior to and simultaneously with said ovalbumin administration. The intensity of the phenomenon thus induced is scored according to a scale from 1 to 5, according to the progress of the inflammatory syndrome. Thus are determined with respect to the control group the mean intensity and the percent decrease of the edema reaction, as a function of time. The percent anti-inflammatory activity obtained 2 hours and 3 hours, respectively, after ovalbumin injection, is tabulated in following Table III: […]

[6] = 1 hour after carrageenin, read-out: Percent anti-inflammatory activity after 1 hour
[7] = 2 hours after carrageenin, read-out: Percent anti-inflammatory activity after 2 hours
[8] = 3 hours after carrageenin, read-out: Percent anti-inflammatory activity after 3 hours
[9] = 5 hours after carrageenin, read-out: Percent anti-inflammatory activity after 5 hours
[10] = 2 hours after ovalbumin injection, read-out: Percent anti-inflammatory activity after 2 hours
[11] = 3 hours after ovalbumin injection, read-out: Percent anti-inflammatory activity after 3 hours

Compound	inhibition in vivo at 100 mg/kg [1]	inhibition in vivo at 100 mg/kg [2, 6]	inhibition in vivo at 100 mg/kg [2, 7]	inhibition in vivo at 100 mg/kg [2, 8]	inhibition in vivo at 100 mg/kg [2, 9]	inhibition in vivo at 100 mg/kg [3]	percent animals put to sleep [4]	inhibition in vivo at 100 mg/kg [5, 10]	inhibition in vivo at 100 mg/kg [5, 11]
CCOC(=O)c1sc2c(c1O)CN(C(=O)OCC)CC2 [Derivative n°11, 2,5-Diethoxycarbonyl-3-hydroxy-4,5,6,7-tetrahydro-thieno[3,2-c]pyridine]	91%	40%	46%	49%	53%	62.1%	60%	51%	61%
CCOC(=O)c1sc2c(c1O)CN(C)CC2 [Derivative n°6, 2-Ethoxycarbonyl-3-hydroxy-5-methyl-4,5,6,7-tetrahydro-thieno[3,2-c]pyridine]	93.2%	34%	40%	43%	48%	63.8%	90%	52%	59%
CCOC(=O)c1sc2c(c1O)CN(Cc1ccccc1Cl)CC2 [Derivative n°1, 5-o-Chlorobenzyl-2-ethoxycarbonyl-3-hydroxy-4,5,6,7-tetrahydro-thieno[3,2-c]pyridine]	90.2%	46%	53%	56%	60%	61.2%	60%	54%	63%
CCOC(=O)c1sc2c(c1OC(C)=O)CN(Cc1ccccc1Cl)CC2 [Derivative n°3, 3-acetoxy-5-o-chlorobenzyl-2-ethoxycarbonyl-4,5,6,7-tetrahydro-thieno[3,2-c]pyridine]	92.9%	38%	45%	49%	51%	62.4%	80%	51%	59%
CCOC(=O)c1sc2c(c1O)CN(CCc1ccccc1)CC2 [Derivative n°9, 2-Ethoxycarbonyl-3-hydroxy-5-phenethyl-4,5,6,7-tetrahydro-thieno[3,2-c]pyridine]	93.8%	42%	46%	50%	54%	64.5%	100%	53%	62%
CCOC(=O)c1sc2c(c1O)CN(Cc1ccccc1)CC2.Cl [Derivative n°4, 5-Benzyl-2-ethoxycarbonyl-3-hydroxy-4,5,6,7-tetrahydro-thieno[3,2-c]pyridine hydrochloride]	95.2%	39%	45%	50%	53%	64.8%	70%	48%	56%
COC(=O)c1sc2c(c1O)CNCC2 [Derivative n°8, 3-Hydroxy-2-methoxycarbonyl-4,5,6,7-tetrahydro-thieno[3,2-c]pyridine]	94.3%	43%	49%	53%	55%	62.1%	80%	48%	57%
CCCCOC(=O)c1sc2c(c1O)CN(Cc1ccccc1Cl)CC2 [Derivative n°10, 2-Butoxycarbonyl-5-o-chlorobenzyl-3-hydroxy-4,5,6,7-tetrahydro-thieno[3,2-c]pyridine]	90.2%	37%	42%	48%	51%	63.6%	90%	50%	59%
CCOC(=O)c1sc2c(c1O)CNCC2 [Derivative n°7, 2-Ethoxycarbonyl-3-hydroxy-4,5,6,7-tetrahydro-thieno[3,2-c]pyridine]	95.6%	36%	41%	45%	52%	62.5%	90%	50%	60%
CCOC(=O)c1sc2c(c1O)CN(C(=O)c1ccccc1)CC2 [Derivative n°2, 5-benzoyl-2-ethoxycarbonyl-3-hydroxy-4,5,6,7-tetrahydro-thieno[3,2-c]pyridine]	94.6%	42%	48%	50%	53%	62.8%	60%	49%	58%
COC(=O)c1sc2c(c1O)CN(Cc1ccccc1Cl)CC2 [Derivative n°5, 5-o-Chlorobenzyl-3-hydroxy-2-methoxycarbonyl-4,5,6,7-tetrahydro-thieno[3,2-c]pyridine]	96.7%	41%	47%	51%	55%	64.4%	70%	47%	55%

Reference: US4136186A, “Thieno[3,2-c]pyridine derivatives” (Parcor, priority 1976, dated 1979)
